Values quoted from earlier work, collected in US20240390366A1, “FORMULATION AND METHOD FOR TOPICAL TREATMENT OF MYCOBACTERIUM ULCERANS IN BURULI ULCERS” (priority 2021, published 2024).

CC(C)/N=c1\cc2n(-c3ccc(Cl)cc3)c3ccccc3nc-2cc1Nc1ccc(Cl)cc1 [Clofazimine, clofazimine]
solubility in water: practically insoluble
